Values joined by “and” are separate entries in the source; they are usually repeats but may differ in a detail not shown here. Equal values may be shown once. Read-outs that look alike come from different tables or passages of the source.
Legend:
[1] = test system: Gram-positive bacteria; conditions: previously examined peptide; cited from earlier work
[2] = test system: Escherichia coli (ATCC 25922); conditions: peptide alone; peptide concentration required to inhibit growth by 20% (so in the source)
Procedure, shortened: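 Broth microdilution in MH broth with ⅔-fold serial compound dilutions; overnight E. coli culture inoculated at 5×10^5 CFU/mL. After 18 h at 37 °C, growth read as OD600, with viability (%) calculated relative to positive and negative control wells.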

[3] = test system: E. coli ATCC 25922; experiment: Antibiotic interaction assay (Wimley), 2/3 broth microdilution: MIC alone, MIC of combination, FICI; type: cell-based; conditions: for FICI of peptide with colistin: labelled peptide + colistin; for FICI of peptide with linezolid: labelled peptide + linezolid
Procedure, shortened: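 Broth microdilution in MH broth with ⅔-fold serial dilutions: each compound alone and a half-and-half peptide/drug mix, inoculum 5×10^5 CFU/mL. Incubation at 37° C for 18 h, growth read as OD600. Synergy expressed as FICI.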

[4] = test system: E. coli; experiment: FACS of TAMRA-labeled peptides entering Gram-negative bacteria; type: cell-based
[5] = test system: E. coli ATCC 25922; conditions: for MIC (μM) against E. coli ATCC 25922, Peptide alone: bacterial growth <10% of control
[6] = test system: Gram-positive bacteria; experiment: Entry of peptide into Gram-positive bacteria; type: cell-based; conditions: data not shown
Source text: (§1) […]. […] […].

[7] = test system: MDA MB231 cells; experiment: FACS penetration of eukaryotic cells; type: cell-based; conditions: 5 microM
Source text: as §1

[8] = test system: Staphylococcus aureus (ATCC 29213); experiment: MIC of peptide against S. aureus; type: cell-based; conditions: peptide alone
Protocol: The N-terminus of the peptides were acetylated and the C-terminus was amidated. The kinked structure can rapidly reduce the alpha-helical content, thereby greatly reducing the toxicity of the peptide against host cells. In addition, because of the potential to show specificity for the Gram-negative bacterial membrane, Pro-mutants were prepared by site-directed mutagenesis. Using the prepared peptides, their MIC for the Gram-negative bacterium E. coli and the Gram-positive bacterium S. aureus and their hemolytic activity for host cells were examined (Table 1).

[9] = test system: E. coli; experiment: NPN fluorescence, penetration into outer membrane; type: cell-based; conditions: FIG. 5
Protocol: Penetration into the microbial outer membrane was measured by the fluorescence intensity of NPN-treated E. coli (λex=355 nm, λem=405 nm). An E. coli suspension (8×10^7 cells/mL) was centrifuged at 13000 rpm at 25° C. for 10 minutes, and suspended in 5 mM HEPES buffer (pH 7.2). NPN was added to the E. coli suspension to a final NPN concentration of 5 μM. The fluorescence intensity of the E. coli suspension was measured using the FL-55 fluorometer. The peptide together with 5 μM NPN was added to the E. coli suspension.

[10] = test system: E. coli NDm-1; experiment: Confocal microscopy of TAMRA-conjugated peptide; type: cell-based; conditions: 2.5 μM peptide, 30 minutes, FIG. 8
Protocol: E. coli NDm-1 was diluted when it reached OD600=0.5. The microorganism was treated with 2.5 μM of the peptide in a 37° C. incubator for 30 minutes. LK-L12P was used as a positive control.

[11] = test system: E. coli; experiment: SYTOX Green membrane penetrability by FACS; type: cell-based; conditions: FIG. 6
Protocol: In the second experiment, whether the peptides would have the ability to disrupt both the outer wall and inner wall of bacteria was examined. To this end, the fluorescent dye Sytox Green capable of specifically staining DNA was used, and penetrability into the microbial membrane was evaluated from the average fluorescence intensity of E. coli treated with SYTOX Green. An E. coli suspension (2×10^8 cells/mL) was incubated with the three peptides in the presence of SYTOX Green (2.5 μM) for 10 minutes, respectively. Penetrability was quantified by a (fluorescence activated cell sorter (FACS). The average fluorescence intensity of 1×10^4 gate cells was measured. Melittin (control) is a pore-forming peptide that disrupts the microbial cell membrane.

## RAGLQFPVGRVHRLLRK [buforin 5-20]
[1]
  activity against Gram-positive bacteria: no activity against Gram-positive bacteria
[2]
  MIC [μM] Against E. coli: 20 µM
[3]
  FICI of peptide with colistin: 0.5
  FICI of peptide with linezolid: 0.7

## LKKLLKLPKKLLKL [LK-L8P]
[4]; TAMRA-labeled, FIG. 1
  extent to which the mutated peptides entered Gram-negative bacteria (order): P>>N=D>Q=E
[4]; peptide about 2.5 microM
  portion of the peptide that entered Gram-negative bacteria: about 60%
[5]; Table 4
  Fractional Inhibitory Concentration Index (FICI), Colistin & 1 μM peptide: 0.83, Synergism
  MIC (μM) against E. coli ATCC 25922, Peptide alone: 3 µM
[2]
  MIC [μM] Against E. coli: 10 µM
[6]
  entry into Gram-positive bacteria: did not enter Gram-positive bacteria
[7]
  penetration of eukaryotic cells: did not penetrate eukaryotic cells
[8]
  MIC [μM] Against S. aureus: >40 µM

## KLLKLLKKPLKLLK [KL-L9P]
[9]
  NPN fluorescence: touching/loosening the outer membrane: better effect of loosening the outer membrane than colistin
[5]; Table 4
  MIC (μM) against E. coli ATCC 25922, Peptide alone: 15 µM
[5]; Table 13, Lys-Ala scanning library
  FICI Against E. coli, Colistin & 1/2 MIC peptide: 0.58
[5]; Table 15, Leu-Ala scanning
  FICI Against E. coli, Colistin & 1/2 MIC peptide: 0.74
  FICI Against E. coli, Colistin & 1/4 MIC peptide: 0.55
[2]
  MIC [μM] Against E. coli: 20 µM and 12 µM
[3]
  lowering of MIC in combination KL-L9P/colistin/linezolid versus alone: 12 fold
  FICI of peptide with colistin: 0.26
  FICI of peptide with linezolid: 0.40
[3]; Example 7
  MIC when the three compounds were used alone: 13 µM
[3]; FIG. 10
  FICI of peptide with resveratrol: 0.2
[3]; KL-L9P + (S)-ibuprofen, concentration of labelled component
  MIC (μM) against E. coli ATCC, combination of two compounds: 2.0 µM
[3]; KL-L9P + cloxacillin, concentration of labelled component
  MIC (μM) against E. coli ATCC, combination of two compounds: 3.0 µM
[3]; KL-L9P + colistin + (S)-ibuprofen, concentration of labelled component
  MIC (μM) against E. coli ATCC, combination of 3 compounds: 1.1 µM
[3]; KL-L9P + colistin + cloxacillin, concentration of labelled component
  MIC (μM) against E. coli ATCC, combination of 3 compounds: 1.6 µM
[3]; KL-L9P + colistin + curcumin, concentration of labelled component
  MIC (μM) against E. coli ATCC, combination of 3 compounds: 1.1 µM
[3]; KL-L9P + colistin + linezolid, concentration of labelled component
  MIC (μM) against E. coli ATCC, combination of 3 compounds: 1.1 µM
[3]; KL-L9P + colistin + simvastatin, concentration of labelled component
  MIC (μM) against E. coli ATCC, combination of 3 compounds: 0.79 µM
[3]; KL-L9P + colistin, concentration of labelled component
  MIC (μM) against E. coli ATCC, combination of two compounds: 2.4 µM
[3]; KL-L9P + curcumin, concentration of labelled component
  MIC (μM) against E. coli ATCC, combination of two compounds: 1.9 µM
[3]; KL-L9P + linezolid, concentration of labelled component
  MIC (μM) against E. coli ATCC, combination of two compounds: 2.6 µM
[3]; KL-L9P + simvastatin, concentration of labelled component
  MIC (μM) against E. coli ATCC, combination of two compounds: 1.3 µM
[3]; Tables 19-23, read-out: MIC (μM) against E. coli ATCC, 1 compound alone
  MIC: 15 µM
[3]; concentration of labelled component
  concentration killing E. coli in combination KL-L9P/colistin/linezolid: 1 µM
[3]; labelled peptide + colistin + linezolid
  FICI of peptide with colistin and linezolid: 0.28
[3]; labelled peptide + simvastatin
  FICI of peptide with simvastatin: 0.18
[3]; peptide concentration in combination with colistin
  MIC of combination (μM): peptide: 2.6 µM
[10]
  confocal image: membrane leakage / distribution of TAMRA-labeled peptide: distributed around the thin peri-cytoplasmic membrane
[8]
  MIC [μM] Against S. aureus: >40 µM
[11]
  SYTOX Green DNA staining: ability to degrade or penetrate the inner wall: did not stain DNA
